Results on six molecules are retold here after paper PMC5677366, “Cyclic di-GMP differentially tunes a bacterial flagellar motor through a novel class of CheY-like regulators” (eLife, 2017).

“Also recorded” adds a separate entry of the source.

The test system of one assay is CleD. Put plainly: 1H-15N HSQC NMR of 15N-CleD with FliM peptides. The class given is binding, Caulobacter crescentus. As to the method:
The standard two-dimensional spectra ^1H-^15N HSQC of His-CleD with or without peptides were performed on a ^15N isotope labeled His-CleD. The His-CleD (400 µM) sample was in 20 mM sodium phosphate buffer at pH 7.0, 200 mM NaCl, 1 mM MgCl2, 5 mM 2-Mercaptoethanol, 0.02% NaN3 (w/v), and 5% (v/v) D2O with a sample volume of 270 μL. c-di-GMP was titrated to the protein sample in 2.5-fold excess. The FliM peptide from residue Ala47 to Gly62 contains an additional Trp at the N-terminus to measure concentration and to increase solubility (WASERILNQDEIDSLLG). As the corresponding ID57_WA peptide contains a Trp we used the following sequence ASERILNQDEWASLLG. Both peptides were purchased from JPT Peptide Technologies, and dissolved in 200 mM NaCl, 20 mM sodium phosphate buffer at pH 7.0, 1 mM MgCl2, 5 mM β-Mercaptoethanol, 0.02%NaN3 (w/v), and 5% (v/v) D2O. With homonuclear 2D-TOCSY and 2D-NOESY experiments the peptide proton resonances were assigned. It was confirmed, that both peptides were stable in this buffer and unfolded (data not shown). The spectrum of the purified CleD protein was recorded in the same buffer as the FliM peptides.

The target in assay [1] is T1, StrepII-CleD (Caulobacter vibrioides, UniProt Q9A3V2). The experiment in a line: UV cross-linking competition with non-labeled nucleotides. Format: binding, Caulobacter crescentus. Particulars: 1 µM StrepII-CleD, 0.25 µM 33P-labelled c-di-GMP. The procedure:
Synthesis of radiolabeled c-di-GMP using YdeH and UV light-induced cross-linking experiments in conical 96-well plates (Greiner Bio-One) were performed as described recently ([Steiner et al., 2013]; [Christen et al., 2005]). […] As a control BSA was included. For competition experiments unlabeled nucleotides were incubated with the protein for 15 min prior the addition of c-[^33P] -di-GMP. The 96-well plates were then UV-irradiated at 254 nm for 20 min using a Bio-Link crosslinker (Vilber Lourmat, France). After addition of 5 μl loading dye and boiling for 5 min the samples were subjected to SDS-PAGE. Proteins were analyzed by Coomassie staining and autoradiography. Band intensities were quantified using the ImageJ64 software and the data were fitted using GraphPad Prism version 5.04 for Windows (GraphPad Software, San Diego California USA). The Kd was calculated by non-linear regression using the ‘One site – Total binding’ equation.

The target in a further assay is T2, His-CheY (Escherichia coli, UniProt P0AE67).
T2 construct: made in house; host or cells: E. coli BL21 (DE3)
T2 sequence (P0AE67 whole entry): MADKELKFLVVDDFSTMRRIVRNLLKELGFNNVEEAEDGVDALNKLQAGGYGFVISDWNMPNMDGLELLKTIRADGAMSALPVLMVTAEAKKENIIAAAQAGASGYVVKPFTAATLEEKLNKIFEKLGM
The experiment in a line: MST. The class given is binding, E. coli. As to the method:
(§1) MST experiments were carried out in a Monolith NT.115 device using standard treated capillaries (NanoTemper Technologies). Fluorescence changes resulting from thermophoresis were recorded using blue channel optics of the instrument (λex = 470 ± 15 nm, λem = 520 ± 10 nm) for the 30 s period of infrared laser heating at 40% of maximum laser power followed by a 5 s of cooling period. Measurements were performed in a buffer containing 50 mM Tris-HCl, pH 8.0, 100 mM NaCl, 5 mM MgCl2, 1 mM DTT and 0.1% Tween 20. 2'-O-(6-[Fluoresceinyl]aminohexylcarbamoyl)-cyclic diguanosine monophosphate (2’fluo-AHC-c-di-GMP, Biolog, Bremen, Germany) was added to probe the binding affinity of CleD domains. A 16-point 1:1 serial dilution series of proteins was titrated against a fixed concentration (60 nM) of 2’fluo-AHC-c-di-GMP. Data were evaluated in the program ProFit (Quansoft, Zurich, Switzerland) and fitted using the Hill equation.

For assay [2], the target named is EcCheY-ARR with R156A mutant ARR (Caulobacter vibrioides, UniProt Q9A3V2, R156A). The experiment in a line: MST. Format: binding, E. coli. Conditions: read-out: apparent Kd. As to the method:
as §1

The next assay deals with His-CleD (aa 19–269) (Caulobacter vibrioides, UniProt Q9A3V2). The experiment in a line: Microscale thermophoresis (MST). Format: binding, Caulobacter crescentus. The procedure:
as §1

The target in assay [3] is His-CleD-rec-ARR (aa 19–174) (Caulobacter vibrioides, UniProt Q9A3V2). Put plainly: MST. The class given is binding, Caulobacter crescentus. The procedure: as §1
Sequence of His-CleD-rec-ARR (aa 19–174) (Q9A3V2 entry or part of it): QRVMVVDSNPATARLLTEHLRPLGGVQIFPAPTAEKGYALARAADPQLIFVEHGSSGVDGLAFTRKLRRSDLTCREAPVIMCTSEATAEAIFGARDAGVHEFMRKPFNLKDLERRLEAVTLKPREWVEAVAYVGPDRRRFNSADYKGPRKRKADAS
The subject of another assay is His-SUMO R156A ARRCleD. The experiment in a line: MST. The class given is binding, Caulobacter crescentus. As to the method: as §1
In another assay the target is His-SUMO R169A ARRCleD (Caulobacter vibrioides, UniProt Q9A3V2, R169A). Put plainly: MST. The class given is binding, Caulobacter crescentus. The procedure: as §1
Sequence of His-SUMO R169A ARRCleD (Q9A3V2 entry or part of it R169A): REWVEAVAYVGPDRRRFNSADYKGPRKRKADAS
Assay [4] concerns isolated ARR of CleA fused to His-SUMO. The experiment in a line: MST. Format: binding, Caulobacter crescentus. As to the method: as §1
Another assay deals with His-CleD (aa 19–262) (Caulobacter vibrioides, UniProt Q9A3V2). The experiment in a line: MST. The class given is binding, Caulobacter crescentus. Conditions: 60 nM ligand; variant lacking part of the CTR. As to the method: as §1
Sequence of His-CleD (aa 19–262) (Q9A3V2 entry or part of it): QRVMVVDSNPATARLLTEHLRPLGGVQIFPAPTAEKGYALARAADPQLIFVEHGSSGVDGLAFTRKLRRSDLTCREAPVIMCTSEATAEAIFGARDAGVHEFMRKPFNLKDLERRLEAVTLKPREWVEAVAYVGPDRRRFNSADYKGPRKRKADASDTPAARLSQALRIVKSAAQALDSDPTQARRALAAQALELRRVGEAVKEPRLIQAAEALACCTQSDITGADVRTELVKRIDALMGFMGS
In a further assay the target is His-CleD-rec (aa 19–141) (Caulobacter vibrioides, UniProt Q9A3V2). The experiment in a line: MST. The class given is binding, Caulobacter crescentus. As to the method:
as §1

Assay [5] deals with EcCheY-ARR (wild-type ARR of CleD fused to E. coli CheY) (Caulobacter vibrioides, UniProt Q9A3V2). The experiment in a line: MST. The class given is binding. Particulars: read-out: apparent Kd. As to the method: as §1
Sequence of EcCheY-ARR (wild-type ARR of CleD fused to E. coli CheY) (P0AE67 2-129): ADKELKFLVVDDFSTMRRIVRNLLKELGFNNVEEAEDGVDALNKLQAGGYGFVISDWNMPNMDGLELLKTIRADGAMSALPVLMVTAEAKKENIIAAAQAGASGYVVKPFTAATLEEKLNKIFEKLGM
Sequence of EcCheY-ARR (wild-type ARR of CleD fused to E. coli CheY) (Q9A3V2 entry or part of it): as the sequence (Q9A3V2 entry or part of it R169A) above
The target in the next assay is T3, His-SUMO (Saccharomyces cerevisiae, UniProt Q12306).
T3 construct: made in house; host or cells: E. coli BL21 (DE3)
T3 sequence (Q12306 whole entry): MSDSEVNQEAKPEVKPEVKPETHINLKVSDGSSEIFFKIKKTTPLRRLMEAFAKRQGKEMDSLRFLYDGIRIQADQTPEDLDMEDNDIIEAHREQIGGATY
Put plainly: MST. The class given is binding. The procedure: as §1

In assay [6] the test system is R156A mutant variant of CleD-GFP. The experiment in a line: ITC with R156A mutant. Format: binding, Caulobacter crescentus. As to the method: (§2) ITC experiments were performed on a VP-ITC MicroCalorimeter (MicroCal, Northampton, MA, USA). Protein samples, c-di-GMP and buffer (50 mM Tris-HCl, pH 8.0, 100 mM NaCl, 5 mM MgCl2, 1 mM DTT) were degassed for 15 min prior to filling into sample cell and syringe. The sample cell contained 7.4 µM of His-CleD-GFP and the syringe contained 69.7 µM of cdG. The concentrations were determined in a spectrophotometer using a cuvette with 1 cm path length. All experiments were carried out at 10 °C with 30 injections (10 µl each) with a 250 s interval. Stir rate was 300 rpm. The data were evaluated using ITC Data Analysis in ORIGIN (MicroCal) provided by the manufacturer. The area under each peak was integrated and fitted using the built-in one-site model by non-linear least squares regression analysis.

Assay [7] deals with T4, CleD-GFP (Caulobacter vibrioides, UniProt Q9A3V2). The experiment in a line: Isothermal titration calorimetry (ITC). The class given is binding, Caulobacter crescentus. Particulars: ITC at 10°C. As to the method: as §2
T4 sequence (Q9A3V2 entry or part of it): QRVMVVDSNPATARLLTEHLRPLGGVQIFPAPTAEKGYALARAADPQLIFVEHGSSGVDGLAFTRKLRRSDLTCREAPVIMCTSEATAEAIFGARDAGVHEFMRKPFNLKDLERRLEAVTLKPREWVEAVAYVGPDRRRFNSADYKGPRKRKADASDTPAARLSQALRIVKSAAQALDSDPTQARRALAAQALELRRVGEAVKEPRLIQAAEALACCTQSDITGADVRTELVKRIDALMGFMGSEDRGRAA
On the technique in general: In ITC the heat of successive injections is recorded.

In a further assay the target is His-CleD_R113A-GFP (Caulobacter vibrioides, UniProt Q9A3V2, R113A). The experiment in a line: ITC with R113A mutant. Format: binding, Caulobacter crescentus. The procedure:
as §2

For assay [8], the target named is T4, CleD-GFP. The experiment in a line: 1H-NMR Jump-return imino proton spectra. Format: binding, Caulobacter crescentus. Particulars: difference spectrum with and without c-di-GMP, four imino H1 resonances. As to the method:
NMR spectra were recorded at 298 K on Bruker DRX 600, and DRX 900 NMR spectrometers equipped with TXI and TCI probe heads, respectively. The one dimensional NMR spectra were recorded with a Jump-return echo sequence ([Sklenár et al., 1987]) optimized for resonances at around 12 ppm. For the complex His-CleD-GFP·c-di-GMP and apo His-CleD-GFP 16384 scans were recorded. The NMR samples were prepared as follows. The sample of apo His-CleD-GFP (30 μM) was prepared in 100 mM NaCl, 20 mM sodium phosphate buffer at pH 6.5, 0.01% NaN3 (w/v), and 5% (v/v) D2O as sample volume of 250 μL. Complex CleD-GFP·c-di-GMP: the ligand was titrated to the apo His-CleD-GFP sample from a 20 mM stock solution in twofold excess.

Assay [9] deals with T1, StrepII-CleD. The experiment in a line: UV cross-linking with radiolabeled c-di-GMP. Format: binding, Caulobacter crescentus. The procedure: Synthesis of radiolabeled c-di-GMP using YdeH and UV light-induced cross-linking experiments in conical 96-well plates (Greiner Bio-One) were performed as described recently ([Steiner et al., 2013]; [Christen et al., 2005]). Briefly, 2 μM protein was incubated for 10 min at room temperature with c-[^33P]-di-GMP in a total volume of 20 μl using PBS as buffer. As a control BSA was included. For competition experiments unlabeled nucleotides were incubated with the protein for 15 min prior the addition of c-[^33P] -di-GMP. The 96-well plates were then UV-irradiated at 254 nm for 20 min using a Bio-Link crosslinker (Vilber Lourmat, France). After addition of 5 μl loading dye and boiling for 5 min the samples were subjected to SDS-PAGE. Proteins were analyzed by Coomassie staining and autoradiography. Band intensities were quantified using the ImageJ64 software and the data were fitted using GraphPad Prism version 5.04 for Windows (GraphPad Software, San Diego California USA). The Kd was calculated by non-linear regression using the ‘One site – Total binding’ equation.

T1 sequence (Q9A3V2 entry or part of it): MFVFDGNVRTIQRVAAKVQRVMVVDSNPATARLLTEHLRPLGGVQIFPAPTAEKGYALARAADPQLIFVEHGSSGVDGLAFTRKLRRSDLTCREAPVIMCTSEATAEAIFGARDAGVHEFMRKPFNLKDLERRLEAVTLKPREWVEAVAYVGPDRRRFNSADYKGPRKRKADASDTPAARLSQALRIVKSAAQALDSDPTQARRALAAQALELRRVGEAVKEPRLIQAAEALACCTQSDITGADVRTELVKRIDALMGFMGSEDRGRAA
Sequence of His-CleD-rec (aa 19–141) (Q9A3V2 entry or part of it): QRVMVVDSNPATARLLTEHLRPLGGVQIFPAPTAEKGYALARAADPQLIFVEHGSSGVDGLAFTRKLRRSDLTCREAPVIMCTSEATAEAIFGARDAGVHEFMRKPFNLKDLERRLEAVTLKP
Sequence of EcCheY-ARR with R156A mutant ARR (Q9A3V2 entry or part of it R156A): as the sequence (Q9A3V2 entry or part of it R169A) above
Sequence of EcCheY-ARR with R156A mutant ARR (P0AE67 2-129, further chain): as the sequence (P0AE67 2-129) above

On to “ASERILNQDEWASLLG [FliM_ID57WA mutant peptide, FliM residues 47–62 peptide with ID57WA substitution]”, for which the “HSQC spectrum change (in words)” value in the assay with CleD (with c-di-GMP) is “indistinguishable from the spectrum recorded for CleD alone”.
With `Nc1nc2c(ncn2[C@@H]2O[C@H](COP(=O)(O)O[C@H]3[C@@H](O)[C@H](n4cnc5c(=O)[nH]c(N)nc54)O[C@@H]3COP(=O)(O)O)[C@@H](O)[C@H]2O)c(=O)[nH]1` [pGpG], the “concentration required for a similar reduction of 33P-labelled c-di-GMP binding, relative to non-labeled c-di-GMP” value on StrepII-CleD [1] stood at 1000 fold.
Take `Nc1nc2c(ncn2[C@@H]2O[C@H](COP(=O)(O)OP(=O)(O)OP(=O)(O)O)[C@@H](O)[C@H]2O)c(=O)[nH]1` [GTP]: on StrepII-CleD [1], the “concentration required for a similar reduction of 33P-labelled c-di-GMP binding, relative to non-labeled c-di-GMP” value is recorded as 1000 fold.
For “2'-O-(6-[Fluoresceinyl]aminohexylcarbamoyl)-cyclic diguanosine monophosphate [flr-cdG]”, the “binding (in words)” value is given as “failed to bind” at His-CheY, “strongly reduced binding; also recorded: completely abolished” in the assay with His-SUMO R156A ARRCleD, “failed to bind” in assay [4] and “not SUMO itself were able to bind flr-cdG” on His-SUMO. For the same molecule, the Kd is 471 µM in assay [2]; 1.2 µM at His-CleD (aa 19–269) (60 nM ligand); 6.2 µM in assay [3] (60 nM ligand); 1.3 µM on His-CleD (aa 19–262); 41.7 µM at His-CleD-rec (aa 19–141) (60 nM ligand); 14.8 µM in [5]. For the same molecule, the “Kd relative to affinities determined for c-di-GMP itself” value on His-CleD (aa 19–269) (full-length CleD and variant lacking part of the CTR) is on record as “roughly 10 fold”. In addition, the “dissociation constant relative to full-length protein” value in assay [3] was 5 fold; at His-CleD-rec (aa 19–141), 40 fold. On His-SUMO R169A ARRCleD, the “reduction of binding relative to wild-type ARR” value is listed as “about 5 fold”.
Take `Nc1nc2c(ncn2[C@@H]2O[C@@H]3COP(=O)(O)O[C@H]4[C@@H](O)[C@H](n5cnc6c(=O)[nH]c(N)nc65)O[C@@H]4COP(=O)(O)O[C@H]3[C@H]2O)c(=O)[nH]1` [c-di-GMP, Cyclic di-GMP]: the “binding (in words)” value in assay [6] is on record as “completely abolished”; on StrepII-CleD [9] (purified Strep-tagged CleD, radiolabeled c-di-GMP), “high affinity binding in the nanomolar range”. Further, the figures for the Kd at CleD-GFP [7], on His-CleD_R113A-GFP and on StrepII-CleD [9] were 0.086 µM, 0.221 µM and 0.212 µM, respectively. In addition, on StrepII-CleD [1], the “competition with labeled probe for binding (in words)” value is listed as “effectively compete; also recorded: equimolar amounts of non-labeled c-di-GMP reduced binding”. The “increase of the Kd as compared to wild-type CleD” value at His-CleD_R113A-GFP (ITC) is given as 3 fold. For the same molecule, at CleD-GFP [8], the binding stoichiometry entry is reported as “two molecules of c-di-GMP are bound to one CleD protomer; also recorded: one c-di-GMP dimer to one protein monomer”.
On to “WASERILNQDEIDSLLG [FliM wild-type peptide, FliM peptide from residue Ala47 to Gly62 with an additional Trp at the N-terminus]”, for which, in the assay with CleD (in the presence of c-di-GMP, peptide in two-fold excess), the “number of CleD resonances with shift changes” value was “approximately 10 resonances”. Besides, the “HSQC spectrum change (in words)” value with CleD (without c-di-GMP) is “indistinguishable from the spectrum recorded for CleD alone”.
